Test results reported in patent US11230538B2, “Herbicides” (SYNGENTA PARTICIPATIONS AG, priority 2016, dated 2022).

What was measured:
Format in all cases: in vivo
Setaria fabenr (SETFA) = assay: B1 Pre-emergence herbicidal activity; parameters: key to Pre-emergence herbicidal activity, SETFA (damage score 0-5): 5=total damage to plant; 0=no damage to plant; settings: pre-emergence application, rate 1000 g/ha, evaluated after 13 days
Method in brief: (§1)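 Pots of sown seeds were sprayed one day after sowing, pre-emergence, with compound in acetone/water (50:50) containing 0.5% Tween 20. Plants were grown in a glasshouse at 24/16 °C day/night, 14 h light and 65% humidity. Damage was scored after 13 days on a 0 (none) to 5 (total) scale.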

Lolium perenne (LOLPE) [1] = assay: B2 Post-emergence herbicidal activity; settings: post-emergence application, rate 1000 g/ha, evaluated after 13 days
Method in brief: (§2)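 Plants grown 8 days in a glasshouse (24/16° C day/night, 14 h light, 65% humidity) were sprayed post-emergence with active ingredient formulated in acetone/water (50:50) containing 0.5% Tween 20. Damage was scored after 13 days on a 0–5 scale (5 = total damage).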

[2] = tested on: Echinochloa crus-galli (ECHCG); assay: B2 Post-emergence herbicidal activity; parameters: key to Post-emergence herbicidal activity, ECHCG (damage score 0-5): 5=total damage to plant; 0=no damage to plant; settings: post-emergence application, rate 1000 g/ha, evaluated after 13 days
Method in brief: as §2

[3] = tested on: Echinochloa crus-galli (ECHCG); assay: B1 Pre-emergence herbicidal activity; parameters: key to Pre-emergence herbicidal activity, ECHCG (damage score 0-5): 5=total damage to plant; 0=no damage to plant; settings: pre-emergence application, rate 1000 g/ha, evaluated after 13 days
Method in brief: as §1

Avena fatua (AVEFA) [4] = assay: B2 Post-emergence herbicidal activity; settings: post-emergence application, rate 1000 g/ha, evaluated after 13 days
Method in brief: as §2

Lolium perenne (LOLPE) [5] = assay: B1 Pre-emergence herbicidal activity; parameters: key to Pre-emergence herbicidal activity, LOLPE (damage score 0-5): 5=total damage to plant; 0=no damage to plant; settings: pre-emergence application, rate 1000 g/ha, evaluated after 13 days
Method in brief: as §1

[6] = tested on: Triticum aestivium (TRZAW); assay: B2 Post-emergence herbicidal activity; parameters: key: 5=total damage to plant; 0=no damage to plant; settings: post-emergence application, rate 1000 g/ha, evaluated after 13 days
Method in brief: as §2

Setaria fabenri (SETFA) = assay: B2 Post-emergence herbicidal activity; parameters: key: 5=total damage to plant; 0=no damage to plant; settings: post-emergence application, rate 1000 g/ha, evaluated after 13 days
Method in brief: as §2

[7] = tested on: Alopecurus myosuroides (ALOMY); assay: B2 Post-emergence herbicidal activity; parameters: key: 5=total damage to plant; 0=no damage to plant; settings: post-emergence application, rate 1000 g/ha, evaluated after 13 days
Method in brief: as §2

[8] = tested on: Triticum aestivium (TRZAW); assay: B1 Pre-emergence herbicidal activity; parameters: key: 5=total damage to plant; 0=no damage to plant; settings: pre-emergence application, rate 1000 g/ha, evaluated after 13 days
Method in brief: as §1

Avena fatua (AVEFA) [9] = assay: B1 Pre-emergence herbicidal activity; parameters: key: 5=total damage to plant; 0=no damage to plant; settings: pre-emergence application, rate 1000 g/ha, evaluated after 13 days
Method in brief: as §1

[10] = tested on: Alopecurus myosuroides (ALOMY); assay: B1 Pre-emergence herbicidal activity; parameters: key: 5=total damage to plant; 0=no damage to plant; settings: pre-emergence application, rate 1000 g/ha, evaluated after 13 days
Method in brief: as §1

SMILES | Pre-emergence herbicidal activity, SETFA (damage score 0-5) (Setaria fabenr (SETFA)) | Post-emergence herbicidal activity, LOLPE (damage score 0-5) (Lolium perenne (LOLPE) [1]) | Post-emergence herbicidal activity, ECHCG (damage score 0-5) [2] | Pre-emergence herbicidal activity, ECHCG (damage score 0-5) [3] | Post-emergence herbicidal activity, AVEFA (damage score 0-5) (Avena fatua (AVEFA) [4]) | Pre-emergence herbicidal activity, LOLPE (damage score 0-5) (Lolium perenne (LOLPE) [5]) | Post-emergence herbicidal activity, TRAZW (damage score 0-5) [6] | Post-emergence herbicidal activity, SETFA (damage score 0-5) (Setaria fabenri (SETFA)) | Post-emergence herbicidal activity, ALOMY (damage score 0-5) [7] | Pre-emergence herbicidal activity, TRAZW (damage score 0-5) [8] | Pre-emergence herbicidal activity, AVEFA (damage score 0-5) (Avena fatua (AVEFA) [9]) | Pre-emergence herbicidal activity, ALOMY (damage score 0-5) [10]
O=C(Nc1ccc(-c2cncc(F)c2)nc1C(F)(F)F)c1ccccc1F [Compound C46] | 4 | 1 | 3 | 2 | 2 | 1 | 0 | 4 | 0 | 0 | 1 | 0
O=C(Nc1ccc(-c2cncc(F)c2)nc1C(F)(F)F)c1cccs1 [Compound C47] | 4 | 3 | 5 | 5 | 4 | 1 | 0 | 5 | 1 | 0 | 2 | 1
CCCCC(=O)Nc1ccc(-c2cncc(F)c2)nc1C(F)(F)F [Compound C49] | 5 | 3 | 5 | 5 | 4 | 1 | 0 | 5 | 1 | 0 | 2 | 1
O=C(Nc1ccc(-c2cncc(F)c2)nc1C(F)(F)F)c1cccnc1 [Compound C50, N-[6-(5-fluoro-3-pyridyl)-2-(trifluoromethyl)-3-pyridyl]pyridine-3-carboxamide] | 4 | 1 | 2 | 3 | 3 | 1 | 0 | 4 | 1 | 0 | 1 | 0
Cc1ccsc1C(=O)Nc1ccc(-c2cncc(F)c2)nc1C(F)(F)F [Compound C51] | 4 | 1 | 2 | 3 | 2 | 0 | 0 | 4 | 0 | 0 | 0 | 0
Cc1ccc(C(=O)Nc2ccc(-c3cncc(F)c3)nc2C(F)(F)F)s1 [Compound C52] | 5 | 2 | 4 | 4 | 4 | 1 | 0 | 5 | 0 | 0 | 1 | 1
O=C(CCC1CCCC1)Nc1ccc(-c2cncc(F)c2)nc1C(F)(F)F [Compound C53] | 4 | 4 | 5 | 5 | 4 | 1 | 1 | 5 | 0 | 0 | 3 | 1
O=C1CCCCN1c1ccc(-c2cncc(F)c2)nc1C(F)(F)F [Compound C54, 1-[6-(5-fluoro-3-pyridyl)-2-(trifluoromethyl)-3-pyridyl]piperidin-2-one] | 3 | 3 | 5 | 2 | 3 | 1 | 0 | 4 | 1 | 0 | 1 | 0
O=C1CCCN1c1ccc(-c2cncc(F)c2)nc1C(F)(F)F [Compound C55] | 4 | 2 | 4 | 1 | 3 | 1 | 0 | 4 | 1 | 0 | 1 | 0
O=C(CC(F)(F)F)Nc1ccc(-c2cncc(F)c2)nc1C(F)(F)F [Compound C56] | 4 | 2 | 4 | 3 | 3 | 0 | 1 | 4 | 0 | 0 | 1 | 0
CCC(=O)N(CC#N)c1ccc(-c2cncc(F)c2)nc1C(F)(F)F [Compound C57] | 4 | 2 | 4 | 3 | 2 | 0 | 0 | 4 | 0 | 0 | 1 | 0
CC(C)C(=O)N(CC#N)c1ccc(-c2cncc(F)c2)nc1C(F)(F)F [Compound C58] | 5 | 1 | 4 | 3 | 2 | 0 | 0 | 5 | 0 | 0 | 0 | 0
